Drawing on patent US7569569B2, “Pyrrolo[2,3-d]pyrimidine compounds” (Pfizer Inc., priority 1998, dated 2009), this text covers melting point for nine compounds.

As a reminder, the melting point is the temperature of the solid-liquid transition. Regarding `c1nc(N2CCCCCCC2)c2cc[nH]c2n1` [Example 17, 4-Azocan-1-yl-7H-pyrrolo[2,3-d]pyrimidine], the melting point fell in the range of 225 to 226 °C.
With `CCCC1CCCCN1c1ncnc2[nH]ccc12` (stereo not drawn) [Example 24, 4-(2-Propyl-piperidin-1-yl)-7H-pyrrolo[2,3-d]pyrimidine], the melting point was in the range of 106 to 107 °C.
To `c1nc(N2CCCCCC2)c2cc[nH]c2n1` [Example 27, 4-Azepan-1-yl-7H-pyrrolo[2,3-d]pyrimidine] belongs 210 °C.
Take `Clc1c[nH]c2ncnc(N3CCCC4CCCCC43)c12` (stereo not drawn) [Example 39, 1-(5-Chloro-7H-pyrrolo[2,3-d]pyrimidin-4-yl)-decahydro-quinoline]: the melting point was in the range of 190 to 192 °C.
Turning to `Cc1cc2c(N(C)C3CCCCC3)ncnc2[nH]1` [Example 59, Cyclohexyl-methyl-(6-methyl-7H-pyrrolo[2,3-d]pyrimidin-4-yl)-amine], the melting point is 221 °C (dec.).
To `Clc1c[nH]c2ncnc(N3CCCCC3)c12` [Example 61, 5-Chloro-4-piperidin-1-yl-7H-pyrrolo[2,3-d]pyrimidine] belongs 170 to 172 °C; to `Clc1c[nH]c2ncnc(N3CCC4CCCCC43)c12` (stereo not drawn) [Example 62, 5-Chloro-4-(octahydro-indol-1-yl)-7H-pyrrolo[2,3-d]pyrimidine], 193 °C; to `N#Cc1c[nH]c2ncnc(N3CCCCC3)c12` [Example 78, 4-Piperidin-1-yl-7H-pyrrolo[2,3-d]pyrimidine-5-carbonitrile], 209 to 211 °C.
As for `C#Cc1c[nH]c2ncnc(N3CCCCC3)c12` [Example 79, 5-Ethynyl-4-piperidin-1-yl-7H-pyrrolo[2,3-d]pyrimidine], the melting point is 179 to 181 °C.
